Test results taken from PubChem BioAssay (NCI).
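Tested at 5 concentrations; 48 h exposure; 96-well plates; endpoints linearly interpolated, else capped at highest concentration. GI50 marks 50% less growth. The concentration for full growth arrest is given as TGI.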

Columns and labels:
Experiment in all cases: NCI-60 cell line screen, 48 h
[1] = tested on: HL-60(TB) leukemia
[2] = tested on: EKVX NSCLC
[3] = tested on: U251 CNS
[4] = tested on: BT-549 breast
[5] = tested on: SK-MEL-5 melanoma
[6] = tested on: 786-0 renal
[7] = tested on: K-562 leukemia
[8] = tested on: OVCAR-5 ovarian
[9] = tested on: SK-OV-3 ovarian
[10] = tested on: SNB-19 CNS
[11] = tested on: UACC-62 melanoma
[12] = tested on: HCT-116 colon
[13] = tested on: CCRF-CEM leukemia
[14] = tested on: RXF 393 renal
[15] = tested on: HS 578T breast
[16] = tested on: CAKI-1 renal
[17] = tested on: HCT-15 colon
[18] = tested on: NCI-H226 lung
[19] = tested on: PC-3 prostate
[20] = tested on: HOP-62 NSCLC
[21] = tested on: A549 NSCLC
[22] = tested on: SF-295 CNS
[23] = tested on: MDA-MB-435
[24] = tested on: NCI/ADR-RES ovarian
[25] = tested on: MCF7 breast
[26] = tested on: TK-10 renal
[27] = tested on: M14 melanoma
[28] = tested on: UACC-257 melanoma
[29] = tested on: A498 renal
[30] = tested on: SF-268 CNS
[31] = tested on: SN12C renal
[32] = tested on: LOX IMVI melanoma
[33] = tested on: SK-MEL-28 melanoma
[34] = tested on: IGROV1 ovarian
[35] = tested on: NCI-H460 lung
[36] = tested on: MALME-3M melanoma
[37] = tested on: HCC-2998 colon
[38] = tested on: SR leukemia
[39] = tested on: SK-MEL-2 melanoma
[40] = tested on: OVCAR-3 ovarian
[41] = tested on: NCI-H23 lung
[42] = tested on: T-47D breast
[43] = tested on: NCI-H522 lung
[44] = tested on: SNB-75 CNS
[45] = tested on: HT29 colon
[46] = tested on: UO-31 renal
[47] = tested on: SW-620 colon
[48] = tested on: RPMI-8226 leukemia
[49] = tested on: DU-145 prostate
[50] = tested on: KM12 colon
[51] = tested on: SF-539 CNS
[52] = tested on: ACHN renal
[53] = tested on: OVCAR-8 ovarian
[54] = tested on: COLO 205 colon
[55] = tested on: OVCAR-4 ovarian
[56] = tested on: HOP-92 NSCLC
[57] = tested on: MDA-MB-231 breast
[58] = tested on: MOLT-4 leukemia

Work on O=C(Nc1ccc(Oc2ccc(F)cc2)cc1)[C@@H]1C[C@@H](Cc2ccc(F)cc2)CN1C(=O)Cn1ccnn1 yielded a GI50 [1] of 3.7 µM, a TGI [1] of 17.8 µM and a GI50 [2] of 7.79 µM. The TGI [2] was 40.4 µM, the GI50 [3] was 4.79 µM and the TGI [3] was 22.2 µM. For the same compound, the GI50 [4] was 11.5 µM, the TGI [4] was 30 µM and the GI50 [5] was 9.12 µM. It also gave a TGI [5] of 22.6 µM, a GI50 [6] of 10.5 µM and a TGI [6] of 34.2 µM. It also gave a GI50 [7] of 5.61 µM, a TGI [7] of over 65 µM and a GI50 [8] of 4.52 µM. It also gave a TGI [8] of 17.7 µM, a GI50 [9] of 19.5 µM and a TGI [9] of over 75.7 µM. The GI50 [10] was 9.45 µM, the TGI [10] was over 100 µM and the GI50 [11] was 6.14 µM. For the same compound, the TGI [11] was 20.9 µM, the GI50 [12] was 4.79 µM and the TGI [12] was 17.3 µM. For the same compound, the GI50 [13] was 5.24 µM, the TGI [13] was over 100 µM and the GI50 [14] was 2.85 µM. It also gave a TGI [14] of 11.6 µM, a GI50 [15] of 11.5 µM and a TGI [15] of 51.9 µM. For the same compound, the GI50 [16] was 11.5 µM, the TGI [16] was 51.7 µM and the GI50 [17] was 5.04 µM. For the same compound, the TGI [17] was 23.1 µM, the GI50 [18] was 7.79 µM and the TGI [18] was 29 µM. It also gave a GI50 [19] of 4.42 µM, a TGI [19] of over 37.8 µM and a GI50 [20] of 12.3 µM. The TGI [20] was 31.5 µM, the GI50 [21] was 5.21 µM and the TGI [21] was over 50.4 µM. The GI50 [22] was 3.64 µM, the TGI [22] was 14.2 µM and the GI50 [23] was 7.16 µM. For the same compound, the TGI [23] was 23.7 µM, the GI50 [24] was 12.1 µM and the TGI [24] was 52.5 µM. It also gave a GI50 [25] of 3.74 µM, a TGI [25] of 17.5 µM and a GI50 [26] of 8.74 µM. For the same compound, the TGI [26] was 35.3 µM, the GI50 [27] was 8.54 µM and the TGI [27] was 25.7 µM. It also gave a GI50 [28] of 8.04 µM, a TGI [28] of 24.9 µM and a GI50 [29] of 8.49 µM. It also gave a TGI [29] of 27.9 µM, a GI50 [30] of 8.55 µM and a TGI [30] of 33.8 µM. For the same compound, the GI50 [31] was 5.73 µM, the TGI [31] was 21.8 µM and the GI50 [32] was 7.28 µM. The TGI [32] was 22.2 µM, the GI50 [33] was 6.72 µM and the TGI [33] was 20.6 µM. The GI50 [34] was 8 µM, the TGI [34] was 28.2 µM and the GI50 [35] was 5.37 µM. The TGI [35] was 21.4 µM, the GI50 [36] was 9.49 µM and the TGI [36] was 26.1 µM. For the same compound, the GI50 [37] was 7.17 µM, the TGI [37] was 21.8 µM and the GI50 [38] was 3.14 µM. It also gave a TGI [38] of 14.2 µM, a GI50 [39] of 8.05 µM and a TGI [39] of 23 µM. It also gave a GI50 [40] of 8.12 µM, a TGI [40] of 26.7 µM and a GI50 [41] of 12.1 µM. It also gave a TGI [41] of 35.5 µM, a GI50 [42] of 4.32 µM and a TGI [42] of 36.5 µM. For the same compound, the GI50 [43] was 5.01 µM, the TGI [43] was 19.3 µM and the GI50 [44] was 4.03 µM. For the same compound, the TGI [44] was 31.8 µM, the GI50 [45] was 4.2 µM and the TGI [45] was 15 µM. For the same compound, the GI50 [46] was 3.5 µM, the TGI [46] was 25.2 µM and the GI50 [47] was 12.6 µM. It also gave a TGI [47] of 40 µM, a GI50 [48] of 3.74 µM and a TGI [48] of 26.4 µM. The GI50 [49] was 13.6 µM, the TGI [49] was over 85.7 µM and the GI50 [50] was 9.43 µM. The TGI [50] was 24.1 µM, the GI50 [51] was 10.6 µM and the TGI [51] was 26.6 µM. The GI50 [52] was 4.93 µM, the TGI [52] was 25.2 µM and the GI50 [53] was 7.16 µM. It also gave a TGI [53] of 31.9 µM, a GI50 [54] of 5.21 µM and a TGI [54] of 16.8 µM. It also gave a GI50 [55] of 6.29 µM, a TGI [55] of over 69.9 µM and a GI50 [56] of 7.54 µM. It also gave a TGI [56] of 31.3 µM, a GI50 [57] of 8.91 µM and a TGI [57] of 26.6 µM. It also gave a GI50 [58] of 4.2 µM and a TGI [58] of 31.6 µM.
